Reference: BigSolDB 2.1

O=C1CCCCCN1
Settings | solubility (mole fraction)
in acetonitrile, 278.85 K | 0.149
in acetonitrile, 283.65 K | 0.187
in acetonitrile, 288.25 K | 0.236
in acetonitrile, 293.55 K | 0.294
in acetonitrile, 298.45 K | 0.359
in acetonitrile, 303.65 K | 0.427
in acetonitrile, 308.15 K | 0.486
in acetonitrile, 313.15 K | 0.558
in acetonitrile, 318.65 K | 0.637
in acetonitrile, 323.15 K | 0.725
in benzene, 279.25 K | 0.2
in benzene, 284.15 K | 0.232
in benzene, 288.55 K | 0.27
in benzene, 293.15 K | 0.31
in benzene, 297.85 K | 0.361
in benzene, 303.05 K | 0.423
in benzene, 307.25 K | 0.482
in benzene, 313.25 K | 0.566
in benzene, 317.45 K | 0.631
in benzene, 321.75 K | 0.701
in cyclohexane, 283.65 K | 0.0042
in cyclohexane, 288.25 K | 0.00616
in cyclohexane, 292.85 K | 0.00897
in cyclohexane, 297.95 K | 0.0144
in cyclohexane, 302.95 K | 0.0244
in cyclohexane, 307.25 K | 0.0373
in cyclohexane, 312.55 K | 0.0617
in cyclohexane, 318.35 K | 0.108
in cyclohexane, 322.65 K | 0.163
in ethyl acetate, 278.85 K | 0.103
in ethyl acetate, 283.65 K | 0.127
in ethyl acetate, 288.35 K | 0.156
in ethyl acetate, 292.95 K | 0.192
in ethyl acetate, 298.05 K | 0.243
in ethyl acetate, 302.85 K | 0.304
in ethyl acetate, 307.15 K | 0.364
in ethyl acetate, 312.35 K | 0.459
in ethyl acetate, 317.15 K | 0.557
in ethyl acetate, 321.55 K | 0.654
